Key:
[1] = target: T1, BSA (Bos taurus, UniProt P02769); experiment: UV-vis absorption spectra (Soret shift of complex); type: binding; settings: PBS, 37 °C, 15 min; hemin in excess over BSA
T1 construct: gene ALB

[2] = target: T2, Cig1 (Cryptococcus neoformans, UniProt J9VUB8); settings: PBS, 25 °C; hemin from DMSO stock
T2 construct: gene CNAG_01653
T2 sequence (J9VUB8 entry or part of it): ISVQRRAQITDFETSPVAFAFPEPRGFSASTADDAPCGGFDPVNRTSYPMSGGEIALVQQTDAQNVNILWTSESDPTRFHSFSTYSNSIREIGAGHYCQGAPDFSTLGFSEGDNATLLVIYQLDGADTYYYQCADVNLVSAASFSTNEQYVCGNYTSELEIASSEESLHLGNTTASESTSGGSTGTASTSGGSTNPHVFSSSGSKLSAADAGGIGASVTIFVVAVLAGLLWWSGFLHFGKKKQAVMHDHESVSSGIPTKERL

T1 sequence (P02769 25-607): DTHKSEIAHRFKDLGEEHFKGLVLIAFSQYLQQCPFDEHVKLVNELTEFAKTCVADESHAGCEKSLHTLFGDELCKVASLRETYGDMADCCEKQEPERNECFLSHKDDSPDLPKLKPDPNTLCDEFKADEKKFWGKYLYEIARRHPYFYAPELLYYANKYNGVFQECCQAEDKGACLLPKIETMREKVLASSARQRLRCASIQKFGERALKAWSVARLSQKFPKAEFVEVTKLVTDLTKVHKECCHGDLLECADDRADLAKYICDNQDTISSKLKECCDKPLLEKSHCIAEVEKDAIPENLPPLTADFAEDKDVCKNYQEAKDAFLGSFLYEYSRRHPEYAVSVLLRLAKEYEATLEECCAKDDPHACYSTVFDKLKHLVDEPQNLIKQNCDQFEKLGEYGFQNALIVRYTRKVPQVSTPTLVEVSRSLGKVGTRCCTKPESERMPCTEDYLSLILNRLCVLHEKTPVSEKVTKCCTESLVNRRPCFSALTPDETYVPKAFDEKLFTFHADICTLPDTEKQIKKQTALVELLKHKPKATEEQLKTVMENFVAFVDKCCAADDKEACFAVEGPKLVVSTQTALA

## C=CC1=C(C)C2=Cc3c(C=C)c(C)c4[n]3[Fe]([Cl])[n]3c(c(C)c(CCC(=O)O)c3=CC3=NC(=C4)C(C)=C3CCC(=O)O)=CC1=N2 [hemin]
[1]
  UV-vis absorption spectra (Soret shift of complex): Hemin@BSA exhibited a red shift in its absorption peak
[2]
  Kd: 9.81×10^‒7 mol/l

— article PMC12329525, “All-stage targeted therapy for invasive cryptococcosis through interaction between the secretory protein Cig1 and hemin” (Asian Journal of Pharmaceutical Sciences, 2025)
